Results from patent US7863262B2, “Nitroxyl progenitors in the treatment of heart failure” (Johns Hopkins University, priority 2002, dated 2011).
“Also recorded” adds a separate entry of the source. Ends that are not written are not given here.

Key:
rat renal tissue = settings: given during ischemia and 5 minutes before reperfusion; Takahira et al. 2001; cited from earlier work
reperfused myocardium = settings: anesthetized rabbits; given 5 minutes prior to reperfusion (after ischemia); Ma et al. 1999; cited from earlier work
[1] = test system: conscious dogs experiencing congestive heart failure (CHF); assay type: in vivo, mongrel dogs; settings: for cardiac load as measured by Edv (preload) and Ea (afterload): FIG. 1
[2] = Long-term infusion (3-4 hours of perfusion); assay type: in vivo
Protocol: In particular embodiments the HNO/NO^− donating compound is administered in the form of a pharmaceutical composition. A pharmaceutical composition comprising an effective amount of the HNO/NO^− donating compound as an active ingredient could be easily prepared by standard procedures well known in the art, with pharmaceutically acceptable non-toxic solvents and/or sterile carriers, if necessary. Such preparations are administered orally or in injectable form, or directly to myocardial tissue. In other embodiments the HNO/NO^− donor is administered without a pharmaceutical carrier. In particular embodiments the HNO/NO^− donor is administered by a short-term infusion, such as for 5 to 20 minutes. In other embodiments the HNO/NO^− donor is administered by a long-term infusion, such as from 3-4 hours.

[3] = test system: normal conscious dogs under beta-antagonist therapy with propranolol; assay type: in vivo; settings: propranolol 2 milligrams/kg in bolus; normal subject
CGRP receptors = assay: CGRP receptor antagonism with CGRP8-37 in conscious dogs experiencing heart failure; assay type: in vivo, mongrel dogs; settings: FIG. 6
Protocol: The diagnostic tests included Ees, DEDV, PRSW, tau, Pes, end diastolic pressure (Ped), end diastolic volume (Ved), and Ea.
To test the relation between the inotropic action of HNO/NO^− and calcitonin gene-related peptide (CGRP) signaling, CGRP receptors in mongrel dogs were antagonized using the selective antagonist CGRP8-37 (400 μg in 30 milliliters (ml) of saline bolus, then 2.6 μg/kg/min for 15 min). Plasma CGRP levels measurements were performed by sampling the blood of the dogs. Blood samples (2.5 ml) were withdrawn from arterial, venous, and coronary sinus catheters. After sampling, catheters were flushed with heparanized saline. Samples were centrifuged at 1600 times gravity (g) for 20 minutes at 4° Celsius (C). Plasma was then separated and stored at −20° C. until analysis. Plasma (0.5 ml) was used to extract CGRP by addition of 0.8 ml of ethanol. The mixture was centrifuged at 1600 g for 20 minutes. After removing the supernatant, the extracted samples were air dried at room temperature overnight and then stored at 4° C. Immediately prior to assay, dried samples were reconstituted with assay buffer following manufacturer's instructions (Peninsula Labs) and assayed for CGRP by radioimmunoassay (RIA). CGRP antiserum, code RAS 6012, was used. The dynamic assay range was 1-128 picograms (pg) per 300 microliters (μL) of sample. […]

[Na+].[Na+].[O-][N+]([O-])=NO [Angeli's salt, sodium trioxodinitrate]
neutrophil infiltration into renal tissue (rat renal tissue): contributed to neutrophil infiltration into the tissue | myocardial ischemia/reperfusion injury (reperfused myocardium): increased myocardial ischemia/reperfusion injury | cardiac load as measured by Edv (preload) and Ea (afterload) [1]: lowered left ventricular preload; also recorded: reduced the cardiac load | persistence of beneficial effects during long-term infusion [2]: retains its beneficial effects during 3-4 hours of perfusion

CC(C)N[N+]([O-])=N[O-].[Na+] [IPA/NO, isopropylamine (IPA)/NO(Na(CH3)2CHNHN(O)NO)]
cardiac load as measured by Edv (preload) and Ea (afterload) [1]: reduced the cardiac load | cardiac contractility compared with Angeli's salt (Ees) ([1]; IPA/NO doses one-half to one-quarter those of Angeli's salt, nearly equivalent blood pressure decrease): superior to those caused by the HNO/NO^− donating compound Angeli's salt; also recorded: exerted a stronger positive inotropic effect; also recorded: greater increase in cardiac contractility than Angeli's salt

CC(C)NCC(O)COc1cccc2ccccc12 (stereo not drawn) [propranolol]
myocardial performance [3]: reduction in myocardial performance

calcitonin gene-related peptide8-37 (VTHRLAGLLSRSGGVVKNNFVPTNVGSKAF; ends and bridges not checked; UniProt P06881 90-119, looked up, fragment) [CGRP8-37]
inotropic effect as measured by Ees (CGRP receptors; CGRP8-37 alone): modest negative inotropic effect | effect on the positive inotropic effect of Angeli's salt (Ees) (CGRP receptors; CGRP8-37 combined with Angeli's salt versus Angeli's salt alone): effectively prevented the HNO/NO^−-mediated, positive inotropic effect of Angeli's salt
